Data as given in patent publication US6933123B2, “Peptides from the E2, E6, and E7 proteins of human papilloma viruses 16 and 18 for detecting and/or diagnosing cervical and other human papillomavirus associated cancers” (priority 2001, dated 2005).
No end group written: not given here.

Tested on: antibodies formed against human papillomavirus (HPV)
Test: ELISA immunoassay of titer-plate-bound HPV peptides with subject serum (antibody-peptide complex, HRP anti-human IgG, TMB)
Format: binding
Details: serum of Subject 6 (low pre-test probability, no HPV DNA detected), diluted 1:25; absorbance read at 450 nm
Procedure: REACTI-BIND™ Maleic Anhydride Activated Polystyrene Plates (Pierce, Rockford, Ill.) may be employed. Each amino acid sequence may be diluted to 12.5 μg/mL with coating buffer (100 mM sodium bicarbonate buffer, pH 9.4). To each titer well, 100 μL (1.25 μg) of the diluted sequence solution may be added. The plate may then be incubated for one hour at room temperature with shaking. The plate may be emptied and residual liquid tapped onto a clean paper towel. Each well may be washed with 100 μL wash buffer (0.1% bovine serum albumin and 0.05% Tween-20 in phosphate buffered saline, pH 7.0). This may be repeated for a total of three times. Each time, the plate may be emptied and residual liquid tapped onto a clean paper towel. To each well, 200 μL of blocking solution (3% bovine serum albumin and 0.05% Tween-20 in phosphate buffered saline, pH 7.0) may be added.
Blocking solution may be left in each well for one minute. The titer plate may then be emptied by inversion. Filling with blocking solution and emptying may be done three times. Finished titer plates may be dried at room temperature and stored at 4° C. for up to four months.
For negative samples, serum may be obtained from virgin females, ages 14 and 15, and from adult sexually active, monogamous women, more than 25 years old, with histories of no Pap smear abnormalities and DNA verification of HPV absence. Positive samples consisted of serum obtained from females diagnosed with cervical cancer or precancerous disease. Subject and control sera may be diluted 1:25 with wash buffer (0.1% bovine serum albumin and […] in phosphate buffered saline, pH 7.0). To each well, 100 μL of diluted serum may be added, and the assay plate incubated for one hour at room temperature with shaking. Each well may then be rinsed three times, each with 200 μL wash buffer. Each rinse may be for five minutes. […]
The bottom of the titer plate may be cleaned with 70% ethanol, and the titer plate loaded into the spectrophotometer. Absorbance may be read at 450 nm, with […] of TMB solution plus […] of 2N HCl used as a blank control.

Substance	absorbance values
KHGYTVQFDGICNTMHY [SEQ ID NO 2, 17 residues making up amino acids 112 through 131 of the HPV 16 E2 oncoprotein]	0.32
Lys Gln Leu Gln His Thr Pro Ser Pro Tyr Ser Ser Thr Val Ser Val Gly Thr Ala Lys Thr Tyr [SEQ ID NO 1]	0.44
HAGGQVILCPTSVFSSNEVSSPE [SEQ ID NO 3, 23 residues making up amino acids 187 through 209 of the HPV 16 E2 oncoprotein]	0.49
